# Reference: ChEMBL document CHEMBL2034920, “Protuboxepin A, a marine fungal metabolite, inducing metaphase arrest and chromosomal misalignment in tumor cells” (Bioorg Med Chem, 2012)
# Calls of active or inactive are those of the source. The calls are words filed in the database; no cut-off is given here.
# Key:
# Hep 3B2 [1] = test: Disruption of alpha-tubulin networks in human Hep3B cells at 10 nM after 18 hrs by immunofluorescence assay; format: cell-based
# Hep 3B2 [2] = test: Disruption of alpha-tubulin networks in human Hep3B cells assessed as increasing acetylated-tubulin signal at 10 nM after 18 hrs by immunofluorescence assay; format: cell-based
# Hep 3B2 [3] = test: Disruption of alpha-tubulin networks in human Hep3B cells assessed as induction of polyglutamylated-tubulin bleb formation at 10 nM after 18 hrs by immunofluorescence assay; format: cell-based
# Tubulin (Homo sapiens) = Tubulin (Homo sapiens) (UniProt P68371+Q9H4B7+P0DPH7+P68366+Q13509+Q71U36+P04350+Q3ZCM7+P07437+P68363+Q9BQE3+Q6PEY2+Q13885+Q9BVA1+Q9BUF5); test: Disruption of gamma-tubulin networks in human Hep3B cells at 10 nM after 18 hrs by immunofluorescence assay; format: cell-based; details: Hep 3B2
# [4] = Cell cycle arrest in human Hep3B cells assessed as induction of prometaphase arrest at 10 nM after 24 hrs by immunofluorescence assay; format: functional, cell-based; details: Hep 3B2
# [5] = Cell cycle arrest in human Hep3B cells assessed as increase of cells with misaligned chromosomes at 10 nM after 24 hrs by immunofluorescence assay; format: functional, cell-based; details: Hep 3B2
# Hep 3B2 [6] = test: Induction of apoptosis in human Hep3B cells assessed as roundup morphology after 24 hrs by microscopic analysis; format: functional, cell-based
# Hep 3B2 [7] = test: Induction of apoptosis in human Hep3B cells assessed as roundup morphology after 48 hrs by microscopic analysis; format: functional, cell-based
# MDA-MB-231 [8] = test: Induction of apoptosis in human MDA-MB-231 cells assessed as roundup morphology after 24 hrs by microscopic analysis; format: functional, cell-based
# MDA-MB-231 [9] = test: Induction of apoptosis in human MDA-MB-231 cells assessed as roundup morphology after 48 hrs by microscopic analysis; format: functional, cell-based
# [10] = target: Apoptosis regulator Bcl-2 (Homo sapiens) (UniProt P10415); test: Induction of Bcl-2 phosphorylation at Ser70 in human Hep3B cells at 160 uM after 18 hrs by Western blotting analysis; format: cell-based; details: Hep 3B2
# Sequence of Apoptosis regulator Bcl-2 (Homo sapiens) (P10415 whole entry): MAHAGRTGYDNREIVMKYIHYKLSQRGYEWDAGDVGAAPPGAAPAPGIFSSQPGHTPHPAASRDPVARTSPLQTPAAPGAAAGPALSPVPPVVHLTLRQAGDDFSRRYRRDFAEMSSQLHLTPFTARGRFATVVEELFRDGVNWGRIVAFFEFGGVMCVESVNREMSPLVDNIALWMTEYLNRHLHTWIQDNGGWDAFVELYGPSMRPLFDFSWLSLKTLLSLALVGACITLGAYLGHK
# [11] = target: Cyclin-dependent kinase 1 (Homo sapiens) (UniProt P06493); test: Inhibition of CDC2 phosphorylation at Tyr15 in human Hep3B cells at 160 uM after 18 hrs by Western blotting analysis; format: cell-based; details: Hep 3B2
# Sequence of Cyclin-dependent kinase 1 (Homo sapiens) (P06493 whole entry, looked up): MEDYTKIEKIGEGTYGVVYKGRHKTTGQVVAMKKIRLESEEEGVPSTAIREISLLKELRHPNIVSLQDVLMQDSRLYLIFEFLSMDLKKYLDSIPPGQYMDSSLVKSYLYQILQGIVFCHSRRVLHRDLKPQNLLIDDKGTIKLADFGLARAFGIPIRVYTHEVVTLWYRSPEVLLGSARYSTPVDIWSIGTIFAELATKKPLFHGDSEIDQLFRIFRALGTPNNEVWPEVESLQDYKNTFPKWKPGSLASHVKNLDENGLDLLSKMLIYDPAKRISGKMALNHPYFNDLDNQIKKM
# Hep 3B2 [12] = test: Induction of apoptosis in human Hep3B cells assessed as induction of caspase-3 cleavage at 27 to 160 uM after 18 hrs by Western blotting analysis; format: functional, cell-based
# Hep 3B2 [13] = test: Induction of apoptosis in human Hep3B cells assessed as induction of PARP cleavage at 27 to 160 uM after 18 hrs by Western blotting analysis; format: functional, cell-based
# [14] = Cell cycle arrest in human Hep3B cells assessed as accumulation at subG1 phase at 0.5 uM after 24 hrs by flow cytometry (reference value: 1.14%); format: functional, cell-based; details: Hep 3B2
# [15] = Cell cycle arrest in human Hep3B cells assessed as accumulation at subG1 phase at 27 uM after 24 hrs by flow cytometry (reference value: 1.14%); format: functional, cell-based; details: Hep 3B2
# [16] = Cell cycle arrest in human Hep3B cells assessed as accumulation at subG1 phase at 80 uM after 24 hrs by flow cytometry (reference value: 1.14%); format: functional, cell-based; details: Hep 3B2
# [17] = Cell cycle arrest in human Hep3B cells assessed as accumulation at subG1 phase at 160 uM after 24 hrs by flow cytometry (reference value: 1.14%); format: functional, cell-based; details: Hep 3B2
# [18] = Cell cycle arrest in human Hep3B cells assessed as accumulation at G0/G1 phase at 27 uM after 24 hrs by flow cytometry (reference value: 52.99%); format: functional, cell-based; details: Hep 3B2
# [19] = Cell cycle arrest in human Hep3B cells assessed as accumulation at G0/G1 phase at 80 uM after 24 hrs by flow cytometry (reference value: 52.99%); format: functional, cell-based; details: Hep 3B2
# [20] = Cell cycle arrest in human Hep3B cells assessed as accumulation at G0/G1 phase at 160 uM after 24 hrs by flow cytometry (reference value: 52.99%); format: functional, cell-based; details: Hep 3B2
# [21] = Cell cycle arrest in human Hep3B cells assessed as accumulation at S phase at 0.5 uM after 24 hrs by flow cytometry (reference value: 11.18%); format: functional, cell-based; details: Hep 3B2
# [22] = Cell cycle arrest in human Hep3B cells assessed as accumulation at S phase at 27 uM after 24 hrs by flow cytometry (reference value: 11.18%); format: functional, cell-based; details: Hep 3B2
# [23] = Cell cycle arrest in human Hep3B cells assessed as accumulation at S phase at 80 uM after 24 hrs by flow cytometry (reference value: 11.18%); format: functional, cell-based; details: Hep 3B2
# [24] = Cell cycle arrest in human Hep3B cells assessed as accumulation at S phase at 160 uM after 24 hrs by flow cytometry (reference value: 11.18%); format: functional, cell-based; details: Hep 3B2
# [25] = Cell cycle arrest in human Hep3B cells assessed as accumulation at G2/M phase at 0.5 uM after 24 hrs by flow cytometry (reference value: 24.37%); format: functional, cell-based; details: Hep 3B2
# [26] = Cell cycle arrest in human Hep3B cells assessed as accumulation at G2/M phase at 27 uM after 24 hrs by flow cytometry (reference value: 24.37%); format: functional, cell-based; details: Hep 3B2
# [27] = Cell cycle arrest in human Hep3B cells assessed as accumulation at G2/M phase at 80 uM after 24 hrs by flow cytometry (reference value: 24.37%); format: functional, cell-based; details: Hep 3B2
# [28] = Cell cycle arrest in human Hep3B cells assessed as accumulation at G2/M phase at 160 uM after 24 hrs by flow cytometry (reference value: 24.37%); format: functional, cell-based; details: Hep 3B2
# HeLa [29] = test: Up-regulation of geminin-GFP in human HeLa cells at 160 uM after 18 hrs by FUCCI analysis; format: functional, cell-based
# Hep 3B2 [30] = test: Disruption of alpha-tubulin networks in human Hep3B cells at 80 to 160 uM after 18 hrs by immunofluorescence assay; format: cell-based
# Hep 3B2 [31] = test: Induction of chromosome mislocalization in human Hep3B cells at 80 to 160 uM after 18 hrs by immunofluorescence assay; format: functional, cell-based
# Homo sapiens = organism: Homo sapiens; test: Induction of Histone H3 Ser10 phosphorylation in human […] cells at 80 to 160 uM after 18 hrs by immunofluorescence staining; format: cell-based
# Hep 3B2 [32] = test: Induction of chromosome misalignment in nucleus of human Hep3B cells at 80 to 160 uM after 18 hrs by immunofluorescence staining; format: functional, cell-based
# [33] = Cell cycle arrest in human Hep3B cells assessed as accumulation at M phase at 80 uM after 24 hrs by flow cytometry (reference value: 6.24 +/- 2.14%); format: functional, cell-based; details: Hep 3B2
# [34] = Cell cycle arrest in human Hep3B cells assessed as accumulation at M phase at 160 uM after 24 hrs by flow cytometry (reference value: 6.24 +/- 2.14%); format: functional, cell-based; details: Hep 3B2
# Tubulin (Sus scrofa) [35] = target: T1, Tubulin (Sus scrofa) (UniProt P02554+P02550); test: Induction of porcine tubulin polymerization at 80 uM measured for every 1 min for 60 mins by spectrophotometry; format: protein assay
# T1 sequence (P02550 whole entry, looked up): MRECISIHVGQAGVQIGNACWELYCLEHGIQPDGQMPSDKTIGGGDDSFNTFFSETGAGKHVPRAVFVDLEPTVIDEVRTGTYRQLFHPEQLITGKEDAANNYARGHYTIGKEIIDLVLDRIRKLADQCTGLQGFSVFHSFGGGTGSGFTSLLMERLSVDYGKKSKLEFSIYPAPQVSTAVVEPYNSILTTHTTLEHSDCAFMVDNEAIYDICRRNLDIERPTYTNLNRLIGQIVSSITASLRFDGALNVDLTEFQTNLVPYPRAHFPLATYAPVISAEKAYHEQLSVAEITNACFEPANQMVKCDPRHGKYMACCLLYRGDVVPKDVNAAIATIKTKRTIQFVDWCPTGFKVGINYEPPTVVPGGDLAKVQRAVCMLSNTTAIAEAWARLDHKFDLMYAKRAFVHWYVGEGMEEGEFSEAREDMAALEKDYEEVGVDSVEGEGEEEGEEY
# T1 sequence (P02554 whole entry, looked up): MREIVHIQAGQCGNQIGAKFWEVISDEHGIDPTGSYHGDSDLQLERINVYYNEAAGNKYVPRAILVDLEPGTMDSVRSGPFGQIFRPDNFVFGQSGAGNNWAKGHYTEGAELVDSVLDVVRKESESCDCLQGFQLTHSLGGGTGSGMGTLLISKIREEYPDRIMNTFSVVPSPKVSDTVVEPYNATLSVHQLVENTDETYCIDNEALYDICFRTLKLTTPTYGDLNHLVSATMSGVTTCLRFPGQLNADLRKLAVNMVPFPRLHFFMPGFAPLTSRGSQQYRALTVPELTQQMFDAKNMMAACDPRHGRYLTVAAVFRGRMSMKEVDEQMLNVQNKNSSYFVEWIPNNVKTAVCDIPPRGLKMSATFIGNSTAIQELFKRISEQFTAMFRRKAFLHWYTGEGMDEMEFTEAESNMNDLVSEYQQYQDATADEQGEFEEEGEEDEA
# Tubulin (Sus scrofa) [36] = target: T1, Tubulin (Sus scrofa); test: Induction of porcine tubulin polymerization at 160 uM measured for every 1 min for 60 mins by spectrophotometry; format: protein assay
# [37] = Binding affinity to porcine brain alphabeta-tubulin using ForteBio's Octet system; format: tissue-based, Sus scrofa
# HeLa [38] = test: Inhibition of microtubule dynamics in human HeLa cells expressing EB1-EGFP at 80 to 160 uM after 1 min by image time-lapse analysis; format: functional, cell-based
# Hep 3B2 [39] = test: Disruption of alpha-tubulin networks in human Hep3B cells assessed as increasing acetylated-tubulin signal at 80 to 160 uM after 18 hrs by immunofluorescence assay; format: cell-based
# Hep 3B2 [40] = test: Disruption of alpha-tubulin networks in human Hep3B cells assessed as induction of polyglutamylated-tubulin bleb formation at 80 to 160 uM after 18 hrs by immunofluorescence assay; format: cell-based
# [41] = Cell cycle arrest in human Hep3B cells assessed as increased the phosphorylation of histone H3 at 80 to 160 uM after 24 hrs by immunofluorescence assay; format: functional, cell-based; details: Hep 3B2
# [42] = Cell cycle arrest in human Hep3B cells assessed as induction of chromosome misalignment in nuclei at 80 to 160 uM after 24 hrs by immunofluorescence assay; format: functional, cell-based; details: Hep 3B2
structure (smiles),measurement,setting,value
CC(=O)O[C@H]1C(=O)[C@@]2(C)[C@H]([C@H](OC(=O)c3ccccc3)[C@]3(O)C[C@H](OC(=O)[C@H](O)[C@@H](NC(=O)c4ccccc4)c4ccccc4)C(C)=C1C3(C)C)[C@]1(OC(C)=O)CO[C@@H]1C[C@@H]2O,Activity,Hep 3B2 [1],Active
same,Activity,Hep 3B2 [2],Active
same,Activity,Hep 3B2 [3],Active
same,Activity,Tubulin (Homo sapiens),Active
same,Activity,[4],Active
same,Activity,[5],Active
CCC(C)[C@@H]1NC(=O)[C@@H](Cc2ccccc2)n2c1nc1c(c2=O)C=CC=CO1 (some centres undefined) [PROTUBOXEPIN A],Activity,Hep 3B2 [6],Dose-dependent effect
same,Activity,Hep 3B2 [7],Dose-dependent effect
same,Activity,MDA-MB-231 [8],Dose-dependent effect
same,Activity,MDA-MB-231 [9],Dose-dependent effect
same,Activity,[10],Active
same,inhibition,[11],Active
same,Activity,Hep 3B2 [12],Active
same,Activity,Hep 3B2 [13],Active
same,Activity,[14],7%
same,Activity,[15],2.26%
same,Activity,[16],6.12%
same,Activity,[17],20.8%
same,Activity,[18],49.1%
same,Activity,[19],41.9%
same,Activity,[20],23.7%
same,Activity,[21],7.31%
same,Activity,[22],10.1%
same,Activity,[23],10.8%
same,Activity,[24],7.44%
same,Activity,[25],20.5%
same,Activity,[26],26%
same,Activity,[27],34.4%
same,Activity,[28],46.7%
same,Activity,HeLa [29],Active
same,Activity,Hep 3B2 [30],Active
same,Activity,Hep 3B2 [31],Active
same,Activity,Homo sapiens,Active
same,Activity,Hep 3B2 [32],Active
same,Activity,[33],18.8%
same,Activity,[34],39.5%
same,Activity,Tubulin (Sus scrofa) [35],Active
same,Activity,Tubulin (Sus scrofa) [36],Active
same,Kd,[37],71.3 µM
same,inhibition,HeLa [38],Active
same,Activity,Hep 3B2 [39],Active
same,Activity,Hep 3B2 [40],Active
same,Activity,[41],Active
same,Activity,[42],Active
